In assay [1] the test system is MRC-5: human lung fibroblast cells. The assay can be described thus: MTT cytotoxicity assay on MRC-5 cells. Type of assay: cell-based. As to conditions: MRC5, 24 h incubation, n = 3, ± standard deviation. How it is done:
(§1) Cytotoxicity was determined using the MTT colorimetric assay, and half-maximal inhibitory concentrations (IC50, μM) were obtained for all cell lines (Table ). The selectivity index (SI) was calculated as the ratio of IC50 MRC-5/IC50 cancer cell line. Doxorubicin was employed as a positive control due to its broad-spectrum clinical use, either alone or in combination, against hepatocellular, ovarian, cervical, and bladder cancers. −
(§2) In vitro biological assays were performed by using five human cell lines for cytotoxicity evaluation. HepG2 cells (ATCC HB-8065), derived from a human hepatocellular carcinoma of the liver (person), were cultured in Dulbecco’s modified Eagle medium (DMEM) supplemented with 5% fetal bovine serum (FBS), penicillin/streptomycin (100 IU/mL), and amphotericin B (5 μg/mL), in a humidified incubator with 5% CO2 at 37 °C. These cells were plated at a concentration of 2.0 × 10^4 cells/well in 96-well microplates. MRC-5 cells (ATCC CCL-171), derived from human lung fibroblasts of a […] fetus, were cultured under the same conditions and plated at 1.0 × 10^4 cells/well. T24 cells (ATCC HTB-4), established from a transitional cell carcinoma of the bladder (person), were also cultured under identical conditions and plated at a density of 1.0 × 10^4 cells/well. TOV-21G cells (ATCC CRL-11730), derived from a primary malignant ovarian adenocarcinoma (person), were maintained in DMEM with the same supplementation and environmental conditions and plated at 5.0 × 10^4 cells/well. […]
(§3) HeLa, HepG2, MRC-5, T24, and TOV-21G cells were suspended in a culture medium supplemented with 5% fetal bovine serum (FBS) and seeded into 96-well microplates. The plates were incubated under a humidified atmosphere containing 5% CO2 at 37 °C for 24 h, allowing for adherence and monolayer formation. , Eight serial dilutions of the test samples, previously solubilized in dimethyl sulfoxide (DMSO), were prepared in DMEM supplemented with 1% FBS, covering a concentration range from […], and the results were converted to […]. The volume of DMSO in each well was limited to a final concentration not exceeding 2%. Following monolayer formation, the culture medium was aspirated and replaced with 100 μL of the diluted test samples and 100 μL of DMEM containing 1% FBS. The plates were then incubated under the same atmospheric and temperature conditions.
(§4) Two hours prior to end point reading, 20 μL of MTT [3-(4,5-dimethylthiazol-2-yl)-2,5-diphenyltetrazolium bromide] solution (1.0 mg/mL in sterile phosphate-buffered saline, Sigma-Aldrich) was added to each well. The incubation period following sample addition varied according to the cell line: 24 h for MRC-5, 48 h for T24, and 72 h for HeLa, HepG2, and TOV-21G. After the appropriate incubation, absorbance was measured by using a VICTOR X3 microplate reader (PerkinElmer), and data were processed with WorkOut 2.5 software at a wavelength of 490 nm. Formazan formation, resulting from the MTT reduction by metabolically active cells, was used as an indirect measure of cell viability. The percentage of cytotoxicity was calculated using the equation % cytotoxicity = [(A – B)/A] × 100, where A is the optical density (OD4 9 0) of untreated control cells and B is the OD4 9 0 of treated cells.
(§5) Cytotoxicity was expressed as the 50% cytotoxic concentration (CC5 0), representing the concentration of sample required to reduce cell viability by 50% relative to that of the untreated control.
For orientation: Tetrazolium assays rely on reduction of a dye to a coloured formazan, in cell work by metabolically active cells.

The test system of assay [2] is T24: human urinary bladder carcinoma cells. The assay can be described thus: MTT cytotoxicity assay on T24 cells. Type of assay: cell-based. How it is done:
as §1, §2, §3, §4, §5

For assay [3], the system named is HeLa, HepG2, T24, and TOV-21G. Put plainly: MTT cytotoxicity, all evaluated cancer cells (summary). Format: cell-based. As to conditions: Homo sapiens, read-out: IC50 values against all evaluated cancer cells. How it is done: as §1
In vitro biological assays were performed by using five human cell lines for cytotoxicity evaluation. […]
as §4, with “The incubation period following sample addition varied according to the cell line: 24 h for MRC-5, 48 h for T24, and 72 h for HeLa, HepG2, and TOV-21G.” left out, “Formazan formation, resulting from the MTT reduction by metabolically active cells, was used as an indirect measure of cell viability.” left out
as §5

Another assay relates to T24 cells. The assay can be described thus: Clonogenic survival, T24. Type of assay: cell-based, human. As to conditions: 18.50 μM (maximum concentration tested), 48 h treatment, 10 days colony formation. The procedure:
The cells were cultured in DMEM (Sigma-Aldrich, St. Louis, USA) and supplemented with 10% fetal bovine serum (Cultilab Ltda., Campinas, Brazil) and antibiotics (amphotericin). They were incubated at 37 °C in a humidified atmosphere with 5% CO2. Control cell groups, which were not exposed to the compound, were included in the experiments and were conducted in triplicate. The chalcone was dissolved in dimethyl sulfoxide (DMSO) for the assays.
The cells were trypsinized and plated into 24-well plates at a density of 1.0 × 10^5 cells/mL. Afterward, they were treated with the chalcone at concentrations of 2.15, 4.62, 9.25, and 18.50 μM for 48 h. Following treatment, the cells were washed with Hanks’ solution and trypsinized again, and approximately 1000 cells were reseeded into 12-well plates. These cells were incubated for 10 days in a CO2 incubator to allow colony formation. After the incubation period, the culture medium was removed, and the cells were washed with Hanks’ solution. Fixation was performed using 4% formaldehyde for 20 min, followed by […] in 100% methanol for 20 min. The cells were then stained with a 0.5% crystal violet solution prepared in 25% methanol. […] Absorbance was measured at 570 nm using a spectrophotometer, and the results were expressed as the percentage of colonies formed relative to the untreated control group.

Another assay has as its system HepG2 cells. Put plainly: Apoptosis/necrosis analysis (annexin V/PI), HepG2. Format: cell-based, human. The following applies: 2.15, 4.62, or 9.25 μM, 48 h. The procedure: Cells in the exponential growth phase were seeded in 12-well plates at a density of 1 × 10^5 cells per well in 3 mL of complete culture medium. Along with the experimental groups, four control groups were included: one without labeling, one labeled only with propidium iodide (PI), one labeled only with Annexin V, and one labeled with both PI and Annexin V. After 24 h, the cells were treated with the compound at concentrations of 2.15, 4.62, 9.25, and 18.50 μM for 48 h. Following the treatment period, the supernatant from each well was transferred to cytometry tubes and centrifuged at 1100 rpm for 10 min. The remaining adhered cells were washed with 1 mL of Hanks’ solution, and 500 μL of trypsin was added to detach the cells. The trypsin action was neutralized by adding 500 μL of complete medium, and the contents (detached cells plus precentrifuged supernatant) were collected into cytometry tubes, which were then centrifuged again at 1100 rpm for 10 min. After centrifugation, the supernatant was discarded. For labeling, Annexin V binding buffer was prepared by diluting 1 mL of component C in 5 mL of distilled water. Next, a 100 μg/mL propidium iodide working solution was prepared by diluting 5 μL of the 1 mg/mL stock (component B) in 45 μL of 1× buffer. […]

As a reminder, the IC50 is the point on the concentration scale where inhibition reaches its midpoint. On to `CCCc1cc(/C=C/C(=O)c2ccc(C)cc2)c(OC)c(OC)c1` [compound 3, (E)-3-(2,3-Dimethoxy-5-propylphenyl)-1-(p-tolyl)-prop-2-en-1-one], for which the IC50 was 55.5 ± 1.2 µM in assay [1]; 5 ± 1.6 µM in assay [2] (Homo sapiens, T-24, MTT, 48 h incubation, n = 3, NA: noncytotoxic at the concentrations tested); 3.03 to 5.92 µM in assay [3]. Moreover, the “SI (T24)” value in assay [2] (IC50 MRC-5/IC50 T24) is reported as 11.1. In addition, in assay [2] (ratio of IC50 values, 1 vs 3), the “potency against T24 relative to hit 1” value is “more than 32 times”. Moreover, the “colony formation, T24” value in the assay on T24 cells is “significant effect was observed”. Further, in the assay with HepG2 cells, the “percentage of apoptotic or necrotic cells, HepG2” value is given as “did not result in a significant increase”.

For the origin of these results see publication PMC12713470, “Design and Synthesis of Novel Chalcone Derivatives Targeting Bladder and Liver Cancer: Cytotoxicity Evaluation and Preliminary Mechanistic Studies” (ACS Omega, 2025).
